In patent US12491170B2, “Stable treprostinil prodrugs” (United Therapeutics Corporation, priority 2020, dated 2025):
Read-outs that look alike come from different tables or passages of the source. Each block holds one compound with its values, some of them ahead of it.

Key:
[1] = dog
[2] = Stability in liver microsomes, dog
[3] = Stability in human subcutaneous skin homogenate; conditions: for AUC: human
[4] = Stability in liver microsomes, human; conditions: for AUC: human
[5] = Stability in cryopreserved hepatocytes, rat; conditions: for AUC: rat
[6] = rat
[7] = Stability in cryopreserved hepatocytes, human; conditions: for AUC: human
[8] = Stability in liver microsomes, rat
[9] = Stability in cryopreserved hepatocytes, dog; conditions: for AUC: dog

Compound: CCCCCC(CCC1C(O)CC2Cc3c(cccc3OCC(=O)O)CC21)OC(=O)CCC(=O)N1CCOCC1 (stereo not shown) [XXXIII]
AUC [1]: 5.10 µmol·min/L | Trep Concentration 0 min [2]: 0.0247 µM | Trep Concentration 10 min [2]: 0.0494 µM | Trep Concentration 20 min [2]: 0.0751 µM | Trep Concentration 30 min [2]: 0.0888 µM | Trep Concentration 60 min [2]: 0.13 µM | Trep Concentration 0 min [3]: 0 µM | Trep Concentration 30 min [3]: 0 µM | Trep Concentration 60 min [3]: 0 µM | Trep Concentration 120 min [3]: 0 µM | AUC [3]: 0.00 µmol·min/L | Trep Concentration 0 min [4]: 0 µM | Trep Concentration 10 min [4]: 0 µM | Trep Concentration 20 min [4]: 0 µM | Trep Concentration 30 min [4]: 0 µM | Trep Concentration 60 min [4]: 0 µM | AUC [4]: 0.00 µmol·min/L | Trep Concentration (μM) 0 min [5]: 0 µM | Trep Concentration (μM) 15 min [5]: 0.0753 µM | Trep Concentration (μM) 30 min [5]: 0.132 µM | Trep Concentration (μM) 60 min [5]: 0.18 µM | Trep Concentration (μM) 120 min [5]: 0.238 µM | AUC [5]: 19.34 µmol·min/L | AUC [6]: 1.90 µmol·min/L | Trep Concentration (μM) 0 min [7]: 0 µM | Trep Concentration (μM) 15 min [7]: 0.0192 µM | Trep Concentration (μM) 30 min [7]: 0.0265 µM | Trep Concentration (μM) 60 min [7]: 0.0464 µM | Trep Concentration (μM) 120 min [7]: 0.0728 µM | AUC [7]: 5.16 µmol·min/L | Trep Concentration 0 min [8]: 0.0107 µM | Trep Concentration 10 min [8]: 0.0193 µM | Trep Concentration 20 min [8]: 0.0291 µM | Trep Concentration 30 min [8]: 0.0305 µM | Trep Concentration 60 min [8]: 0.0498 µM | Trep Concentration (μM) 0 min [9]: 0 µM | Trep Concentration (μM) 15 min [9]: 0.0287 µM | Trep Concentration (μM) 30 min [9]: 0.03796 µM | Trep Concentration (μM) 60 min [9]: 0.0584 µM | Trep Concentration (μM) 120 min [9]: 0.0754 µM | AUC [9]: 6.18 µmol·min/L

Compound: CCCCCC(CCC1C(O)CC2Cc3c(cccc3OCC(=O)O)CC21)OC(=O)C1CCCN1 (stereo not shown) [XXXVI]
AUC [1]: 19.90 µmol·min/L | Trep Concentration 0 min [2]: 0.102 µM | Trep Concentration 10 min [2]: 0.199 µM | Trep Concentration 20 min [2]: 0.309 µM | Trep Concentration 30 min [2]: 0.353 µM | Trep Concentration 60 min [2]: 0.483 µM | Trep Concentration 0 min [3]: 0 µM | Trep Concentration 30 min [3]: 0.328 µM | Trep Concentration 60 min [3]: 0.559 µM | Trep Concentration 120 min [3]: 0.852 µM | AUC [3]: 60.56 µmol·min/L | Trep Concentration 0 min [4]: 0.443 µM | Trep Concentration 10 min [4]: 0.502 µM | Trep Concentration 20 min [4]: 0.478 µM | Trep Concentration 30 min [4]: 0.379 µM | Trep Concentration 60 min [4]: 0.316 µM | AUC [4]: 24.34 µmol·min/L | Trep Concentration (μM) 0 min [5]: 0.00925 µM | Trep Concentration (μM) 15 min [5]: 0.494 µM | Trep Concentration (μM) 30 min [5]: 0.511 µM | Trep Concentration (μM) 60 min [5]: 0.505 µM | Trep Concentration (μM) 120 min [5]: 0.499 µM | AUC [5]: 56.67 µmol·min/L | AUC [6]: 20.24 µmol·min/L | Trep Concentration (μM) 0 min [7]: 0 µM | Trep Concentration (μM) 15 min [7]: 0.502 µM | Trep Concentration (μM) 30 min [7]: 0.512 µM | Trep Concentration (μM) 60 min [7]: 0.45 µM | Trep Concentration (μM) 120 min [7]: 0.482 µM | AUC [7]: 53.76 µmol·min/L | Trep Concentration 0 min [8]: 0.154 µM | Trep Concentration 10 min [8]: 0.242 µM | Trep Concentration 20 min [8]: 0.326 µM | Trep Concentration 30 min [8]: 0.342 µM | Trep Concentration 60 min [8]: 0.463 µM | Trep Concentration (μM) 0 min [9]: 0 µM | Trep Concentration (μM) 15 min [9]: 0.229 µM | Trep Concentration (μM) 30 min [9]: 0.276 µM | Trep Concentration (μM) 60 min [9]: 0.264 µM | Trep Concentration (μM) 120 min [9]: 0.279 µM | AUC [9]: 29.90 µmol·min/L

Compound: CCCCCC(CCC1C(O)CC2Cc3c(cccc3OCC(=O)O)CC21)OC(=O)CN (stereo not shown) [XXX]
AUC [1]: 30.11 µmol·min/L | Trep Concentration 0 min [2]: 0.0977 µM | Trep Concentration 10 min [2]: 0.347 µM | Trep Concentration 20 min [2]: 0.495 µM | Trep Concentration 30 min [2]: 0.562 µM | Trep Concentration 60 min [2]: 0.664 µM | Trep Concentration 0 min [3]: 0 µM | Trep Concentration 30 min [3]: 0.206 µM | Trep Concentration 60 min [3]: 0.369 µM | Trep Concentration 120 min [3]: 0.533 µM | AUC [3]: 38.78 µmol·min/L | Trep Concentration 0 min [4]: 0.036 µM | Trep Concentration 10 min [4]: 0.132 µM | Trep Concentration 20 min [4]: 0.227 µM | Trep Concentration 30 min [4]: 0.31 µM | Trep Concentration 60 min [4]: 0.429 µM | AUC [4]: 16.41 µmol·min/L | AUC [6]: 6.86 µmol·min/L | Trep Concentration 0 min [8]: 0.011 µM | Trep Concentration 10 min [8]: 0.0524 µM | Trep Concentration 20 min [8]: 0.0901 µM | Trep Concentration 30 min [8]: 0.122 µM | Trep Concentration 60 min [8]: 0.196 µM

Further lines, results first:

AUC [1]: 56.58 µmol·min/L | Trep Concentration 0 min [2]: 0.987 µM | Trep Concentration 10 min [2]: 0.972 µM | Trep Concentration 20 min [2]: 0.982 µM | Trep Concentration 30 min [2]: 0.993 µM | Trep Concentration 60 min [2]: 0.816 µM | Trep Concentration 0 min [3]: 0 µM | Trep Concentration 30 min [3]: 0.224 µM | Trep Concentration 60 min [3]: 0.408 µM | Trep Concentration 120 min [3]: 0.657 µM | AUC [3]: 44.79 µmol·min/L | Trep Concentration 0 min [4]: 1.02 µM | Trep Concentration 10 min [4]: 0.877 µM | Trep Concentration 20 min [4]: 0.755 µM | Trep Concentration 30 min [4]: 0.664 µM | Trep Concentration 60 min [4]: 0.393 µM | AUC [4]: 40.60 µmol·min/L | Trep Concentration (μM) 0 min [5]: 0 µM | Trep Concentration (μM) 15 min [5]: 0.215 µM | Trep Concentration (μM) 30 min [5]: 0.217 µM | Trep Concentration (μM) 60 min [5]: 0.189 µM | Trep Concentration (μM) 120 min [5]: 0.172 µM | AUC [5]: 21.77 µmol·min/L | AUC [6]: 25.20 µmol·min/L | Trep Concentration (μM) 0 min [7]: 0.0174 µM | Trep Concentration (μM) 15 min [7]: 0.631 µM | Trep Concentration (μM) 30 min [7]: 0.572 µM | Trep Concentration (μM) 60 min [7]: 0.506 µM | Trep Concentration (μM) 120 min [7]: 0.446 µM | AUC [7]: 58.62 µmol·min/L | Trep Concentration 0 min [8]: 0.281 µM | Trep Concentration 10 min [8]: 0.369 µM | Trep Concentration 20 min [8]: 0.419 µM | Trep Concentration 30 min [8]: 0.471 µM | Trep Concentration 60 min [8]: 0.433 µM | Trep Concentration (μM) 0 min [9]: 0.09 µM | Trep Concentration (μM) 15 min [9]: 0.616 µM | Trep Concentration (μM) 30 min [9]: 0.554 µM | Trep Concentration (μM) 60 min [9]: 0.459 µM | Trep Concentration (μM) 120 min [9]: 0.42 µM | AUC [9]: 55.64 µmol·min/L
Compound: CCCCCC(CCC1C(O)CC2Cc3c(cccc3OCC(=O)O)CC21)OC(=O)C(C)C (stereo not shown) [LXVII]

AUC [1]: 35.65 µmol·min/L | Trep Concentration 0 min [2]: 0.134 µM | Trep Concentration 10 min [2]: 0.479 µM | Trep Concentration 20 min [2]: 0.63 µM | Trep Concentration 30 min [2]: 0.674 µM | Trep Concentration 60 min [2]: 0.694 µM | Trep Concentration 0 min [3]: 0 µM | Trep Concentration 60 min [3]: 0.204 µM | Trep Concentration 120 min [3]: 0.323 µM | AUC [3]: 22.23 µmol·min/L | Trep Concentration 0 min [4]: 0.0531 µM | Trep Concentration 10 min [4]: 0.193 µM | Trep Concentration 20 min [4]: 0.31 µM | Trep Concentration 30 min [4]: 0.327 µM | Trep Concentration 60 min [4]: 0.383 µM | AUC [4]: 17.58 µmol·min/L | AUC [6]: 3.09 µmol·min/L | Trep Concentration 0 min [8]: 0.00504 µM | Trep Concentration 10 min [8]: 0.0179 µM | Trep Concentration 20 min [8]: 0.0351 µM | Trep Concentration 30 min [8]: 0.0465 µM | Trep Concentration 60 min [8]: 0.107 µM
Compound: CCCCCC(CCC1C(O)CC2Cc3c(cccc3OCC(=O)O)CC21)OC(=O)C(C)N (stereo not shown) [XXXI]

AUC [1]: 1.30 µmol·min/L | Trep Concentration 0 min [2]: 0 µM | Trep Concentration 10 min [2]: 0.012 µM | Trep Concentration 20 min [2]: 0.0177 µM | Trep Concentration 30 min [2]: 0.025 µM | Trep Concentration 60 min [2]: 0.0334 µM | Trep Concentration 0 min [3]: 0 µM | Trep Concentration 30 min [3]: 0.0333 µM | Trep Concentration 60 min [3]: 0.0488 µM | Trep Concentration 120 min [3]: 0.0759 µM | AUC [3]: 5.47 µmol·min/L | Trep Concentration 0 min [4]: 0.00482 µM | Trep Concentration 20 min [4]: 0.0168 µM | Trep Concentration 30 min [4]: 0.0173 µM | Trep Concentration 60 min [4]: 0.0265 µM | AUC [4]: 1.05 µmol·min/L | AUC [6]: 0.56 µmol·min/L | Trep Concentration 0 min [8]: 0 µM | Trep Concentration 10 min [8]: 0.00463 µM | Trep Concentration 20 min [8]: 0.00443 µM | Trep Concentration 30 min [8]: 0.0102 µM | Trep Concentration 60 min [8]: 0.0178 µM
Compound: CCCCC[C@@H](CC[C@@H]1[C@H]2Cc3cccc(OCC(=O)O)c3C[C@H]2C[C@H]1O)OC(=O)[C@@H](N)C(C)C [XXIX]
